According to the NIST ThermoML archive (doi:10.1021/je800105r):
Numbers after ± are expanded uncertainties.

Experiment: activity coefficient (dimensionless); of the first substance listed, at infinite dilution; xn = mol fraction of the nth substance listed
Settings: Liquid, Chromatography, x1 = 0

Compound	activity coefficient (303.15 K)	activity coefficient (308.15 K)	activity coefficient (313.15 K)	activity coefficient (318.15 K)
C=CCCCCC [1-heptene] + CCCCCCCCCCCCCC[P+](CCCCCC)(CCCCCC)CCCCCC.O=S(=O)([N-]S(=O)(=O)C(F)(F)F)C(F)(F)F	1 ± 0.06	1.02 ± 0.06	1.04 ± 0.07	1.09 ± 0.07
C#CCCCCC [1-heptyne] + CCCCCCCCCCCCCC[P+](CCCCCC)(CCCCCC)CCCCCC.O=S(=O)([N-]S(=O)(=O)C(F)(F)F)C(F)(F)F	0.59 ± 0.04	0.63 ± 0.04	0.66 ± 0.05	0.7 ± 0.05
C#CCCCC [1-hexyne] + CCCCCCCCCCCCCC[P+](CCCCCC)(CCCCCC)CCCCCC.O=S(=O)([N-]S(=O)(=O)C(F)(F)F)C(F)(F)F	0.66 ± 0.05	0.68 ± 0.05	0.71 ± 0.05	0.74 ± 0.05
C#CCCCCCC [1-octyne] + CCCCCCCCCCCCCC[P+](CCCCCC)(CCCCCC)CCCCCC.O=S(=O)([N-]S(=O)(=O)C(F)(F)F)C(F)(F)F	0.53 ± 0.04	0.55 ± 0.04	0.58 ± 0.04	0.63 ± 0.04
C=CCCC [1-pentene] + CCCCCCCCCCCCCC[P+](CCCCCC)(CCCCCC)CCCCCC.O=S(=O)([N-]S(=O)(=O)C(F)(F)F)C(F)(F)F	0.78 ± 0.05	0.8 ± 0.05	0.82 ± 0.05	0.85 ± 0.05
c1ccccc1 [benzene] + CCCCCCCCCCCCCC[P+](CCCCCC)(CCCCCC)CCCCCC.O=S(=O)([N-]S(=O)(=O)C(F)(F)F)C(F)(F)F	0.38 ± 0.03	0.39 ± 0.03	0.4 ± 0.03	0.42 ± 0.04
C1CCCCCC1 [cycloheptane] + CCCCCCCCCCCCCC[P+](CCCCCC)(CCCCCC)CCCCCC.O=S(=O)([N-]S(=O)(=O)C(F)(F)F)C(F)(F)F	0.88 ± 0.06	0.91 ± 0.06	0.92 ± 0.06	0.94 ± 0.06
C1CCCCC1 [cyclohexane] + CCCCCCCCCCCCCC[P+](CCCCCC)(CCCCCC)CCCCCC.O=S(=O)([N-]S(=O)(=O)C(F)(F)F)C(F)(F)F	0.78 ± 0.05	0.8 ± 0.05	0.82 ± 0.05	0.85 ± 0.05
C1CCCC1 [cyclopentane] + CCCCCCCCCCCCCC[P+](CCCCCC)(CCCCCC)CCCCCC.O=S(=O)([N-]S(=O)(=O)C(F)(F)F)C(F)(F)F	0.68 ± 0.05	0.69 ± 0.05	0.71 ± 0.05	0.73 ± 0.05
CCO [ethanol] + CCCCCCCCCCCCCC[P+](CCCCCC)(CCCCCC)CCCCCC.O=S(=O)([N-]S(=O)(=O)C(F)(F)F)C(F)(F)F	1.36 ± 0.09	1.33 ± 0.09	1.31 ± 0.09	1.3 ± 0.08
CCCCCCC [heptane] + CCCCCCCCCCCCCC[P+](CCCCCC)(CCCCCC)CCCCCC.O=S(=O)([N-]S(=O)(=O)C(F)(F)F)C(F)(F)F	1.26 ± 0.08	1.27 ± 0.08	1.3 ± 0.08	1.33 ± 0.09
C=CCCCC [hex-1-ene] + CCCCCCCCCCCCCC[P+](CCCCCC)(CCCCCC)CCCCCC.O=S(=O)([N-]S(=O)(=O)C(F)(F)F)C(F)(F)F	0.88 ± 0.06	0.9 ± 0.06	0.92 ± 0.06	0.97 ± 0.06
CCCCCC [hexane] + CCCCCCCCCCCCCC[P+](CCCCCC)(CCCCCC)CCCCCC.O=S(=O)([N-]S(=O)(=O)C(F)(F)F)C(F)(F)F	1.09 ± 0.07	1.1 ± 0.07	1.13 ± 0.07	1.17 ± 0.07
CO [methanol] + CCCCCCCCCCCCCC[P+](CCCCCC)(CCCCCC)CCCCCC.O=S(=O)([N-]S(=O)(=O)C(F)(F)F)C(F)(F)F	1.26 ± 0.08	1.24 ± 0.08	1.23 ± 0.08	1.23 ± 0.08
C=CCCCCCC [oct-1-ene] + CCCCCCCCCCCCCC[P+](CCCCCC)(CCCCCC)CCCCCC.O=S(=O)([N-]S(=O)(=O)C(F)(F)F)C(F)(F)F	1.11 ± 0.07	1.14 ± 0.07	1.16 ± 0.07	1.21 ± 0.08
CCCCCCCC [octane] + CCCCCCCCCCCCCC[P+](CCCCCC)(CCCCCC)CCCCCC.O=S(=O)([N-]S(=O)(=O)C(F)(F)F)C(F)(F)F	1.32 ± 0.09	1.36 ± 0.09	1.4 ± 0.09	1.46 ± 0.1
CCCCC [pentane] + CCCCCCCCCCCCCC[P+](CCCCCC)(CCCCCC)CCCCCC.O=S(=O)([N-]S(=O)(=O)C(F)(F)F)C(F)(F)F	0.94 ± 0.06	0.96 ± 0.06	0.99 ± 0.06	1.02 ± 0.06
CCCO [propan-1-ol] + CCCCCCCCCCCCCC[P+](CCCCCC)(CCCCCC)CCCCCC.O=S(=O)([N-]S(=O)(=O)C(F)(F)F)C(F)(F)F	1.42 ± 0.09	1.4 ± 0.09	1.39 ± 0.09	1.38 ± 0.09
